Experimental data published in article PMC9413739, “Tri- and Pentacyclic Azaphenothiazine as Pro-Apoptotic Agents in Lung Carcinoma with a Protective Potential to Healthy Cell Lines” (Molecules, 2022).
Values joined by “and” are separate entries in the source; they are usually repeats but may differ in a detail not shown here. Equal entries are not always repeated.

Assays:
NHDF = experiment: MTT viability assay, NHDF; type: cell-based; conditions: Homo sapiens, 72 h of incubation, mean of three experiments ± SD
Procedure: (§1) A standard anticancer drug, such as doxorubicin, was simultaneously used at the same concentrations range: 100, 50, 25, 12.5, 6.25, 3.15, 1.56 µM.
(§2) Biological experiments were conducted on a panel of cancer cell lines, adenocarcinoma human alveolar basal epithelial cells (A549), and human non-small cell lung carcinoma cell line (H1299). In order to determine the potential side effects of treatments, research was performed simultaneously on the human bronchial epithelial cells (BEAS-2B) and normal human dermal fibroblasts (NHDF); all cells received were received from the ATCC collections (Manassas, VA, USA). Cells were grown in DMEM F-12 medium (PAA, Warsaw, Poland) supplemented with 10% (v/v) heat-inactivated FBS (Eurx, Gdańsk, Poland) and 100 units/mL penicillin and 100 μg/mL streptomycin (Sigma-Aldrich, Darmstadt, Germany) at 37 °C in a humidified atmosphere with 5% CO2 [23, 27, 29].
(§3) Examination of cytotoxicity using MTT assay is the most convenient and fastest method for screening of cytotoxic action of the drugs. MTT assay is a colorimetric method for evaluation of cell viability based on mitochondrial dehydrogenase enzyme activity. The survival rate of the cells was calculated relative to the control cells, grown in standard conditions. Using this assay, IC50 values were calculated for each cell line treated with standard compounds and drugs. For […] assay, cells were seeded in 96-well plates at 1 × 10^4 cells/well in 0.2 mL completed medium 24 h before drug treatment. In the next step, cells were incubated for 72 h with the compounds (doses: 100; 50; 25; 12.5; 6.25; 3.15 and 1.56 µM) and then were washed three times with PBS (PAA, Laboratories GmbH, Cölbe, Germany). […] The levels of absorbance were measured at a wavelength of λ = 570 nm using a microplate spectrophotometer (Epoch; BioTek, Winooski, VT, USA) and expressed as a % of the untreated control, named the survival fraction [SF] […]

BEAS-2B = experiment: MTT viability assay, BEAS-2B; type: cell-based; conditions: Homo sapiens, 72 h of incubation, mean of three experiments ± SD
Procedure: as §1, §2, §3

A549 = experiment: MTT viability assay, A549; type: cell-based; conditions: Homo sapiens, A549, 72 h of incubation, mean of three experiments ± SD
Procedure: as §1, §2, §3

H1299 = experiment: MTT viability assay, H1299; type: cell-based; conditions: Homo sapiens, NCI-H1299, H1299, 72 h of incubation, mean of three experiments ± SD
Procedure: as §1, §2, §3

[1] = test system: human lung carcinoma A549 and non-small lung carcinoma H1299; experiment: MTT viability assay, summary over lung carcinoma lines; type: cell-based; conditions: range over DPT-1 and DPT-2 in A549 and H1299
Text: DPT-1 and DPT-2 initiated a biological response in the investigated cancer models with a different mechanism and at a different rate. Based on these findings, it can be concluded that DPT-1 and DPT-2 have potential as chemotherapeutic agents.
as §3

A549 cells [2] = experiment: Cell cycle analysis via flow cytometry, A549; type: cell-based, human; conditions: A549, 50 µM, 72 h
Procedure: A lowered viability, followed by the MTT assay, could be a perfect indicator of the anticancer potential of drugs. However, this procedure measures the mitochondrial activity of the enzymatic complex. The real cytotoxicity against the antiproliferative action of drugs could be distinguished using the next step procedure, a cytometric cell cycle distribution, compared to the untreated controls. For that reason, the cell cycle was measured, followed by 72 h of incubation with DPT-1 and DPT-2. High doses of phenothiazines (50 µM) arrested the cell cycle at different phases, dependent on the cancer cell line. […] The phenomenon of sub-G1 phase reduction (lowered necrotic/apoptotic and general dead cells fraction), in comparison to the untreated control, could be explained by the cytostatic potential of phenothiazines. […] The MTT estimations of cells viability, calculated from the lowered absorbance, resulted from the antiproliferative and cytostatic role of DPT-1 and DPT-2 in the A549 cell line for S and G2/M cell cycle phases.
Many drugs work by inhibiting cell proliferation and causing cell cycle blockage. Using flow cytometry, the impact of new compounds on the cell cycle were determined. Cells incubated with compound were also analyzed for cellular death pathways, apoptosis induction, followed by Annexin-V assay. […]

H1299 cells [3] = experiment: Cell cycle analysis via flow cytometry, H1299; type: cell-based, human; conditions: H1299, 50 µM, 72 h
Procedure: (§4) Many drugs work by inhibiting cell proliferation and causing cell cycle blockage. Using flow cytometry, the impact of new compounds on the cell cycle were determined. Cells incubated with compound were also analyzed for cellular death pathways, apoptosis induction, followed by Annexin-V assay. Annexin-V is a protein that binds phosphatidylserine and allows early detection of apoptosis; additionally, iodium propide staining distinguishes it from necrosis. For apoptosis and cell cycle assays the cell cultures were plated in 6-well plates at a confluence of 1 × 10^5 in 2 mL of completed fresh DMEM-F12 medium, 24 h before drugs addition. An Aria III flow cytometer (Becton Dickinson; Franklin Lakes, NJ, USA) was used. The flow cytometry analysis was done on a free Flowing Software 2.5.1 program (by Perttu Terho, the Cell Imaging and Cytometry Core, Turku Bioscience Centre, Turku, Finland, with the support of Biocenter Finland).

A549 cells [4] = experiment: Annexin-V apoptosis assay with PI staining, A549; type: cell-based, human; conditions: 72 h; for type of cellular death at lower doses: A549, 0.78–12.5 µM; for type of cellular death at higher doses: A549, 25–100 µM
Procedure: (§5) Followed by Annexin-V apoptosis assay after 72 h of incubation with DPT-1 and DPT-2 at a dose of 50 µM, the type of cellular death is possible to determine (Figure 6 and Figure 7). […] After 72 h of incubation of cells in both controls, some of the early and late apoptotic cells were observable, without necrotic ones.
as §4

H1299 cells [5] = experiment: Annexin-V apoptosis assay with PI staining, H1299; type: cell-based, human; conditions: H1299, 50 µM, 72 h
Procedure: as §5, §4

BEAS-2B cells = experiment: Live Cell Analyzer microscopic observation, BEAS-2B; type: cell-based, human; conditions: 72 h; for survival fraction in comparison to the untreated controls: 50 µM, images; for morphological observation: 100 µM
Text: (§6) The cells stayed mostly unattached and floating with some shrunken, which indicates a late stage of apoptosis and necrosis. Using cancer cell lines A549 and H1299, the cellular apoptotic and necrotic death was confirmed, followed by cell cycle cytometric analysis for the sub-G1 fraction (please compare Figure 4 and Figure 5). […] Such observations additionally explained the results of Annexin-V apoptosis assays, where some of the cells, mainly carcinomas, presented an early apoptosis fraction (Figure 6, Figure 7 and Figure 8).
(§7) Microscopic observation and images acquisition with Live Cell Analyzer (JuLI™ Br; NanoEnTek Inc., Seoul, Korea) was used to directly observe on-plate confluence, density, and cell viability and images acquisitions.

A549 cells [6] = experiment: Live Cell Analyzer microscopic observation, A549; type: cell-based, human; conditions: 72 h; for survival fraction in comparison to the untreated controls: A549, 50 µM, images; for morphological observation: A549, 100 µM
Text: as §6, §7

[7] = test system: glioblastoma SNB-19, melanoma C-32, and breast cancer MCF-7 cell lines; parameters: method as in PMID 26950280; conditions: SNB-19, C-32 and MCF-7 cell lines; cited from earlier work
[8] = test system: normal fibroblast HFF-1 cell line; parameters: method as in PMID 26950280; conditions: cited from earlier work
[9] = test system: A2780 ovarian cancer cells; parameters: method as in PMID 29123378; conditions: A2780, dose-dependent inhibition; cited from earlier work
[10] = test system: normal kidney HEK293 cells; parameters: method as in PMID 29123378; conditions: cited from earlier work
normal heart H9C2 cells = test system: normal heart H9C2 cells; parameters: method as in PMID 29123378; conditions: cited from earlier work
[11] = test system: glioblastoma SNB-19, colorectal carcinoma Caco-2, breast cancer MDA-MB-231, and lung cancer A549 cell lines; parameters: method as in PMID 30981160; conditions: range over SNB-19, Caco-2, MDA-MB-231 and A549; cited from earlier work
[12] = test system: normal human dermal fibroblasts NHDF; parameters: method as in PMID 30981160; conditions: cited from earlier work

Compound	IC50 (NHDF) [µM]	IC50 (BEAS-2B) [µM]	IC50 (A549) [µM]	IC50 (H1299) [µM]	IC50 [1] [µM]	cell cycle arrest (A549 cells [2])	cell cycle effect (H1299 cells [3])	type of cellular death (A549 cells [4]; A549, 50 µM)	type of cellular death at lower doses (A549 cells [4])	type of cellular death at higher doses (A549 cells [4])	type of cellular death (H1299 cells [5])	survival fraction in comparison to the untreated controls (BEAS-2B cells)	morphological observation (BEAS-2B cells)	survival fraction in comparison to the untreated controls (A549 cells [6])	morphological observation (A549 cells [6])	further results
c1cnc2c(c1)Nc1ccncc1S2 [DPT-1, 10H-3,6-diazaphenothiazine]	2.246 ± 0.01	2.468 ± 0.01	1.526 ± 0.004	2.515 ± 0.005	1.52 to 12.9	S and G2/M arrest	cell cycle is stopped in the G0/G1-phase	pro-apoptotic activity	necrosis is visible	induced cellular death via an apoptosis pathway	pro-apoptotic activity	5–30%	typical morphological changes for cellular death	5–30%	typical morphological changes for cellular death	cells apoptotic (late apoptotic fraction, Annexin-V+/PI+) (A549 cells [4]; A549, 50 µM): ~90%; cells apoptotic (late apoptotic fraction, Annexin-V+/PI+) (H1299 cells [5]): ~90%; IC50 [7]: 0.46 µg/mL and 0.72 µg/mL; action against normal cells [8]: non-toxic action; IC50 [9]: 0.62 µM; cytotoxicity compared with A2780 [10]: significantly less cytotoxicity; cytotoxicity compared with A2780 (normal heart H9C2 cells): significantly less cytotoxicity
CN(C)CCCN1c2cnc3ccccc3c2Sc2cc3ccccc3nc21 [DPT-2, 7-(3′-dimethylaminopropyl)diquinothiazine]	18.77 ± 0.038	11.26 ± 0.038	3.45 ± 0.054	12.89 ± 0.013	1.52 to 12.9	S and G2/M arrest	strong cytotoxic effect	induced apoptosis, as well as necrosis	induced early apoptosis	induced toxic, necrotic death	induced apoptosis, as well as necrosis	5–30%	typical morphological changes for cellular death	5–30%	typical morphological changes for cellular death	tested population necrotic (Annexin-V−/PI+) (A549 cells [4]; A549, 50 µM): circa 30%; tested population necrotic (Annexin-V−/PI+) (H1299 cells [5]): circa 30%; IC50 [11]: 0.3 to 3.44 µM; cytotoxicity against normal cells [12]: low cytotoxicity
COc1cccc2c1C(=O)c1c(O)c3c(c(O)c1C2=O)C[C@@](O)(C(=O)CO)C[C@@H]3O[C@H]1C[C@H](N)[C@H](O)[C@H](C)O1 [doxorubicin, reference compound]	> 100	< 1.56	5.289 ± 0.004	7.749 ± 0.004	–	–	–	–	–	–	–	–	–	–	–	–
